From patent US11999727B2 (Tango Therapeutics, Inc., priority 2020, dated 2024)
pIC50: −log10 of the molar value.

What was measured:
[1] = tested on: HAP1 MTAP-intact cell line; assay: SDMA in-cell western assay, HAP1 MTAP-intact; type: cell-based; conditions: Homo sapiens, HAP1, SDMA in-cell western, HAP1 MTAP-intact; read-out: MTAP HAP1 intact IC50
How it was run: (§1)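 Isogenic HAP1 pair: the MTAP-intact line expresses endogenous MTAP, and the deleted line is MTAP-null. Symmetric dimethylarginine was detected by in-cell western and IC50 values derived for each line.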

PRMT5 [2] = biological target: T1, PRMT5 (Homo sapiens, UniProt O14744); assay: PRMT5 biochemical IC50 assay with MTA as cofactor; conditions: PRMT5, MTA as cofactor; read-out: MTA IC50
T1 construct: purchased Viva (custom protein)

PRMT5 [3] = biological target: T1, PRMT5; assay: PRMT5 biochemical IC50 assay with no cofactor; conditions: PRMT5, no cofactor; read-out: No Cofactor/rel IC50
Text: Table 1 indicates IC50 values (μM) against PRMT5 for exemplary compounds in the presence of SAM as cofactor, with no cofactor, and with MTA as cofactor, respectively (columns 4-6). […] Ki values can be calculated from the IC50 values as described in the Examples section. As detailed in the Examples section, for the assay performed in the presence of SAM, IC50=Ki×1.5 (Ki=IC50/1.5).

[4] = tested on: HAP1 MTAP-deleted cell line; assay: Viability assay, MTAP-deleted cell line; type: cell-based; conditions: Homo sapiens, HAP1, viability assay, MTAP-deleted cell line; read-out: HAP1 MTAP deleted viability
Text: Table 1 additionally indicates IC50 values in a viability assay for the MTAP-deleted cell line (column 10), indicating the effect of treatment with compound on cell survival.

[5] = tested on: HAP1 MTAP-deleted cell line; assay: SDMA in-cell western assay, HAP1 MTAP-deleted; type: cell-based; conditions: for pIC50: Homo sapiens, HAP1, SDMA in-cell western, HAP1 MTAP-deleted, read-out: HAP 1 MTAP deleted IC50; for MTAP intact/deleted ratio: IC50 ratio HAP1 MTAP-intact / HAP1 MTAP-deleted, SDMA in-cell western
How it was run: as §1

PRMT5 [6] = biological target: T1, PRMT5; assay: PRMT5 biochemical IC50 assay with SAM as cofactor; conditions: PRMT5, SAM as cofactor; read-out: SAM IC50

T1 sequence (O14744 whole entry): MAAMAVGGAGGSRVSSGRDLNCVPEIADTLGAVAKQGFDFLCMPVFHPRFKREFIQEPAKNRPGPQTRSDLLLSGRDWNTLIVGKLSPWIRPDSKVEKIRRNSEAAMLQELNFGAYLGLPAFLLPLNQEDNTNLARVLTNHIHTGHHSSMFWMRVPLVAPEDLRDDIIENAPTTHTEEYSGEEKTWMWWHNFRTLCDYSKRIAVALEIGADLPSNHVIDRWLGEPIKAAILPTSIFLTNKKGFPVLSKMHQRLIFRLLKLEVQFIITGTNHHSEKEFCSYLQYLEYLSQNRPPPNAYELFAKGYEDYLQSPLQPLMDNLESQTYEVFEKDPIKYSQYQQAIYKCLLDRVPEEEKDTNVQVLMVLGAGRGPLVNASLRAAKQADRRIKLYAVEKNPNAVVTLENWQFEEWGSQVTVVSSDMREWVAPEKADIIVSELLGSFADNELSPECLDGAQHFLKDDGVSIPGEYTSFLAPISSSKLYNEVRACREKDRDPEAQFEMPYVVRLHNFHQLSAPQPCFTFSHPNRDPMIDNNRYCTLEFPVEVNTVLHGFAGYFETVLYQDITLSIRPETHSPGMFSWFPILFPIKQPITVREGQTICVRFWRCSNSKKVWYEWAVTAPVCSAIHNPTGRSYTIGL
T1 sequence (Q9BQA1 whole entry partner): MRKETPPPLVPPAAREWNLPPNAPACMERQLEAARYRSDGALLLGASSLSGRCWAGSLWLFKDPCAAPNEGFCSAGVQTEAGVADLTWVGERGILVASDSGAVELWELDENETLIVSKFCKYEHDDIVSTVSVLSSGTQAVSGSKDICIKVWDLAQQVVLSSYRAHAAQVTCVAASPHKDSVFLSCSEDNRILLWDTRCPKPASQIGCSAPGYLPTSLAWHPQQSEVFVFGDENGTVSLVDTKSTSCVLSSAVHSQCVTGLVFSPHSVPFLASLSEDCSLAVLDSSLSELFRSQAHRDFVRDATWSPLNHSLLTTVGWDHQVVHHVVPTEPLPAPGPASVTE

## Cc1cc(NC(=O)C(=O)N2C[C@H](C)CC[C@H]2c2cccc3[nH]cnc23)cnc1N (single isomer, unassigned) [Compound 949]
[1]
  pIC50: < 6.00
PRMT5 [2]
  pIC50: > 7.30
PRMT5 [3]
  pIC50: 6.30 to 7.30
[4]
  pIC50: 5.00 to 6.00
[5]
  pIC50: 6.00 to 7.00
  MTAP intact/deleted ratio: A (an IC50 ratio greater than or equal to 10 fold)
PRMT5 [6]
  pIC50: 6.30 to 7.30

## COc1ncc(NC(=O)C(=O)N2C[C@H](C)CC[C@H]2c2cc3cn[nH]c3s2)cc1C(N)=O (single isomer, unassigned) [Compound 950, 2-methoxy-5-(2-(5-methyl-2-(1H-thieno[2,3-c]pyrazol-5-yl)piperidin-1-yl)-2-oxoacetamido)nicotinamide]
[1]
  pIC50: < 6.00
PRMT5 [2]
  pIC50: < 6.30
PRMT5 [3]
  pIC50: < 6.30
[4]
  pIC50: < 5.00
[5]
  pIC50: < 6.00
  MTAP intact/deleted ratio: B (an IC50 ratio greater than or equal to 3 fold but lower than 10 fold)
PRMT5 [6]
  pIC50: < 6.30

## CCc1cc(NC(=O)C(=O)N2C[C@@H](C)CC[C@@H]2c2cc(Cl)cc(Cl)c2)cnc1N (single isomer, unassigned) [Compound 951]
[1]
  pIC50: < 6.00
PRMT5 [2]
  pIC50: > 7.30
PRMT5 [3]
  pIC50: > 7.30
[4]
  pIC50: 5.00 to 6.00
[5]
  pIC50: > 7.00
  MTAP intact/deleted ratio: A (an IC50 ratio greater than or equal to 10 fold)
PRMT5 [6]
  pIC50: 6.30 to 7.30

## COc1ncc(NC(=O)C(=O)N2C[C@H](C)CC[C@H]2c2cc3[nH]ncc3s2)cc1C(N)=O (single isomer, unassigned) [Compound 952, 2-methoxy-5-(2-(5-methyl-2-(1H-thieno[3,2-c]pyrazol-5-yl)piperidin-1-yl)-2-oxoacetamido)nicotinamide]
[1]
  pIC50: < 6.00
PRMT5 [2]
  pIC50: < 6.30
PRMT5 [3]
  pIC50: < 6.30
[4]
  pIC50: < 5.00
[5]
  pIC50: < 6.00
  MTAP intact/deleted ratio: B (an IC50 ratio greater than or equal to 3 fold but lower than 10 fold)
PRMT5 [6]
  pIC50: < 6.30

## Cc1cc(NC(=O)C(=O)N2C[C@H](C)CC[C@H]2c2ccc3c(=O)[nH]ccc3c2)cnc1N (single isomer, unassigned) [Compound 953]
[1]
  pIC50: < 6.00
PRMT5 [2]
  pIC50: 6.30 to 7.30
PRMT5 [3]
  pIC50: < 6.30
[4]
  pIC50: < 5.00
[5]
  pIC50: 6.00 to 7.00
  MTAP intact/deleted ratio: A (an IC50 ratio greater than or equal to 10 fold)
PRMT5 [6]
  pIC50: < 6.30

## CCc1cc(NC(=O)C(=O)N2C[C@H](C)CC[C@H]2c2cc3[nH]ncc3s2)cnc1N (single isomer, unassigned) [Compound 955]
[1]
  pIC50: 6.00 to 7.00
PRMT5 [2]
  pIC50: > 7.30
PRMT5 [3]
  pIC50: > 7.30
[4]
  pIC50: > 6.00
[5]
  pIC50: > 7.00
  MTAP intact/deleted ratio: A (an IC50 ratio greater than or equal to 10 fold)
PRMT5 [6]
  pIC50: 6.30 to 7.30

## Cc1cc(NC(=O)C(=O)N2C[C@H](C)CC[C@H]2c2ccc3sc(C(F)(F)F)nc3c2)cnc1N (single isomer, unassigned) [Compound 959]
[1]
  pIC50: < 6.00
PRMT5 [2]
  pIC50: < 6.30
PRMT5 [3]
  pIC50: < 6.30
[4]
  pIC50: < 5.00
[5]
  pIC50: < 6.00
  MTAP intact/deleted ratio: B (an IC50 ratio greater than or equal to 3 fold but lower than 10 fold)
PRMT5 [6]
  pIC50: < 6.30

## Cc1cc(NC(=O)C(=O)N2C[C@H](C)CC[C@H]2c2cccc3scnc23)cnc1N (single isomer, unassigned) [Compound 960]
[1]
  pIC50: < 6.00
PRMT5 [2]
  pIC50: > 7.30
PRMT5 [3]
  pIC50: 6.30 to 7.30
[4]
  pIC50: 5.00 to 6.00
[5]
  pIC50: 6.00 to 7.00
  MTAP intact/deleted ratio: A (an IC50 ratio greater than or equal to 10 fold)
PRMT5 [6]
  pIC50: 6.30 to 7.30

## Cc1cc(NC(=O)C(=O)N2C[C@@H](C)CC[C@@H]2c2ccc3c(=O)[nH]ccc3c2)cnc1N (single isomer, unassigned) [Compound 961]
[1]
  pIC50: < 6.00
PRMT5 [2]
  pIC50: > 7.30
PRMT5 [3]
  pIC50: 6.30 to 7.30
[4]
  pIC50: 5.00 to 6.00
[5]
  pIC50: > 7.00
  MTAP intact/deleted ratio: A (an IC50 ratio greater than or equal to 10 fold)
PRMT5 [6]
  pIC50: < 6.30

## Cc1cc(NC(=O)C(=O)N2C[C@H](C)CC[C@H]2c2cccc3c2CCN3)cnc1N (single isomer, unassigned) [Compound 962]
[1]
  pIC50: < 6.00
PRMT5 [2]
  pIC50: > 7.30
PRMT5 [3]
  pIC50: 6.30 to 7.30
[4]
  pIC50: 5.00 to 6.00
[5]
  pIC50: 6.00 to 7.00
  MTAP intact/deleted ratio: A (an IC50 ratio greater than or equal to 10 fold)
PRMT5 [6]
  pIC50: 6.30 to 7.30

## Cc1nc2cc([C@@H]3CC[C@@H](C)CN3C(=O)C(=O)Nc3cnc(N)c(C)c3)ccc2[nH]1 (single isomer, unassigned) [Compound 963]
[1]
  pIC50: < 6.00
PRMT5 [2]
  pIC50: < 6.30
PRMT5 [3]
  pIC50: < 6.30
[4]
  pIC50: < 5.00
[5]
  pIC50: < 6.00
  MTAP intact/deleted ratio: B (an IC50 ratio greater than or equal to 3 fold but lower than 10 fold)
PRMT5 [6]
  pIC50: < 6.30
